These are literature values, as cited in patent publication US20250339398A1, “TREATMENT OF SLEEP DISTRUBANCES IN AUTISM SPECTRUM DISORDER PATIENTS” (Vanda Pharmaceuticals Inc., priority 2021, published 2025).

The conditions of series [1]: previous clinical studies in healthy volunteers, primary insomnia, Non-24, pediatric SMS.
Another series addresses T1, MT2 receptor (Homo sapiens, UniProt P49286).
T1 sequence (P49286 1-362): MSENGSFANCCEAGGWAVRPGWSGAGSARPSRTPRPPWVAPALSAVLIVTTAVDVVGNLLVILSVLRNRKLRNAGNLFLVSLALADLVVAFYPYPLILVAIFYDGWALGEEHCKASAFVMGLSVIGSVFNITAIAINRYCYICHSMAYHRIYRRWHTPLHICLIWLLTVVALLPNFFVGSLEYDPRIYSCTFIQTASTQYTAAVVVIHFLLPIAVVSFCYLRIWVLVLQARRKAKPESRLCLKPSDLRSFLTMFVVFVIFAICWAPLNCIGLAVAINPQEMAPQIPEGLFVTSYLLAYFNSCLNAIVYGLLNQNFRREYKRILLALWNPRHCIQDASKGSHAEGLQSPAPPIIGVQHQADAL
The conditions noted are these: MT2 receptor versus MT1 receptor.

Turning to `CCC(=O)NC[C@@H]1C[C@H]1c1cccc2c1CCO2` [Tasimelteon, tasimelteon], the safety and tolerability result in series [1] is “safe and well-tolerated”. Besides, where the note is “doses ranging from 3 mg to 300 mg”, the linearity of pharmacokinetics result was “linear”. For the setting “in vivo”, the absolute bioavailability is recorded as 38%. At MT2 receptor, the “affinity for the MT2 receptor relative to the MT1 receptor” value was “greater affinity for the MT2 receptor than the MT1 receptor”.
